Key:
[1] = Ratio of uptake of [GD] in bone 1 hr post injection with 0.01(A) to that of muscle; type: functional
[2] = organism: Rattus norvegicus; test: Biodistribution in rat kidney in the presence of NCAGd/0.01 M lig; type: ADME, organism-based; details: in vivo
[3] = organism: Rattus norvegicus; test: Biodistribution in rat liver by in the presence of NCAGd/0.01 M lig; type: ADME, organism-based; details: in vivo
[4] = organism: Rattus norvegicus; test: Biodistribution in rat spleen in the presence of NCAGd/0.01 M lig; type: ADME, organism-based; details: in vivo
[5] = organism: Rattus norvegicus; test: Uptake of [GD] in bone 1 hr post injection with 0.01(N) of the compound; type: functional, Bone element
[6] = organism: Rattus norvegicus; test: Biodistribution in rat bone in the presence of NCAGd/0.01 M lig; type: ADME, organism-based, Bone element; details: in vivo
[7] = Ratio of uptake of [GD] in bone 1 hr post injection with 0.01(A) to that of blood; type: functional
[8] = Ratio of uptake of [GD] in bone 1 hr post injection with 0.01(N) to that of muscle; type: functional
[9] = organism: Rattus norvegicus; test: Biodistribution in rat heart in the presence of NCAGd/0.01 M lig; type: ADME, organism-based; details: in vivo
[10] = organism: Rattus norvegicus; test: Uptake of [GD] in bone 1 hr post injection with NCA GD dose; type: functional, Bone element
[11] = Ratio of uptake of [GD] in bone 1 h post injection with 0.01(N) to that of blood; type: functional
[12] = organism: Rattus norvegicus; test: Biodistribution in rat blood in the presence of NCAGd/0.01 M lig; type: ADME, organism-based; details: in vivo
[13] = organism: Rattus norvegicus; test: Biodistribution in rat muscle in the presence of NCAGd/0.01 M lig; type: ADME, organism-based, Muscle tissue; details: in vivo
[14] = organism: Rattus norvegicus; test: Uptake of [GD] in bone 1 hr post injection with 0.01(A) of the compound; type: functional, Bone element
[15] = Ratio of uptake of [GD] in bone 1 hr post injection with 0.01 (N) to that of blood
[16] = Ratio of uptake of [GD] in bone 1 hr post injection with 0.01 to that of muscle; type: functional
[17] = organism: Rattus norvegicus; test: Uptake of [GD] in bone 1 hr post injection with 0.01 (N) of the compound
[18] = Ratio of uptake of [GD] in bone 1 hr post injection with 0.01 (N) to that of muscle
[19] = Ratio of uptake of [GD] in bone 1 hr post injection with NCA GD dose to that of muscle; type: functional
[20] = organism: Rattus norvegicus; test: Uptake of [GD] in bone 1 h post injection with 0.01 of the compound; type: functional, Bone element

SMILES	Ratio [1]	ID/organ [2]	ID/organ [3]	ID/organ [4]	ID [5]	ID/organ [6]	Ratio [7]	Ratio [8]	ID/organ [9]	ID [10]	Ratio [11]	ID/organ [12]	ID/organ [13]	ID [14]	Ratio [15]	Ratio [16]	ID [17]	Ratio [18]	Ratio [19]	ID [20]
OC(CNCCNCC(O)c1ccccc1)c1ccccc1 (stereo not drawn)	1.6%	3.57%	20.9%	0.135%	6.36%	56.8%	0.139%	2.14%	0.34%	56.8%	0.188	2.35%	6.09%	6.37%	–	–	–	–	–	–
CC(C)(CO)NCCNC(C)(C)CO	–	2.85%	41%	0.19%	–	27.7%	–	–	0.28%	27.7%	–	7.25%	4.09%	–	0.135%	1.61%	2.56%	1.47%	6.78%	7.23%
